# Experimental data from patent US6770596B1, “Fused tricyclic compounds, process for their preparation, and herbicidal compositions containing them” (Ishihara Sangyo Kaisha Ltd., priority 2002, dated 2004).
# Assays:
# Type in all cases: in vivo
# [1] = tested on: redroot pigweed (Amaranthus retroflexus, AMR); experiment: Pre-emerge test, redroot pigweed; conditions: 250 g ai/ha, 14 days after application, rating scale 0-100 (0 no damage, 100 complete death)
# Text: (§1) A standard greenhouse herbicide activity screening system was used to evaluate the herbicidal efficacy and crop safety of these test compounds. Seven broadleaf weed species including redroot pigweed (Amaranthus retroflexus, AMR), velvetleaf (Abutilon theophrasti, ABT), sicklepod (Cassia obtusifolia, CAO), ivyleaf morningglory (Ipomoea hederacea, IPH), lambsquarters (Chenopodium album, CHA), common ragweed (Ambrosia artemisiifolia L., AML), and cocklebur (Xanthium strumariunt, XAS) were used as test species. Four grass weed species including green foxtail (Setaria viridis, SEV), barnyardgrass (Echinachloa crus-galli, ECC), johnsongrass (Sorghum halepense, SOH), and large crabgrass (Digitaria sanguinalis, DIS) were also used. In addition, four crop species, field corn (Zea mays L., var. Dekalb 535, CORN), soybean (Glycine max L., var. Pella 86, SOY), upland rice (Oryza sp., var.Tebonnet, RICE), and wheat (Triticum aestivum) were included all plants were grown in 10 cm square plastic pots which were filled with a sandy loam soil mix.
# (§2) For pre-emerge tests, seeds were planted one day prior to application of the test compounds. All test compounds were dissolved in acetone and applied to the test pots in a volume of 187 l/ha. Test materials were applied at rates ranging from 8 g ai/ha to 1000 g ai/ha using a track sprayer equipped with a TJ8001E even flow flat fan spray nozzle. This application simulates a typical commercial field herbicide application.
# (§3) At 14 days after application of the test materials, phytotoxicity ratings were recorded. A rating scale of 0-100 was used for both pre and post emerge tests as previously described in Research Methods in Weed Science, 2nd edition, B, Truelove, Ed., Southern Weed Science Society, Auburn University, Auburn, Ala., 1977. Briefly, “0” corresponds to no damage and “100” corresponds to complete death of all plants in the test unit. This scale was used both to determine efficacy against weed species and damage to crop species. Herbicide activity data for various compounds of this invention, which are shown by compound No. in Tables 1-3, are shown in Tables 5 and 6.
# [2] = tested on: velvetleaf (Abutilon theophrasti, ABT); experiment: Pre-emerge test, velvetleaf; conditions: 250 g ai/ha, 14 days after application, rating scale 0-100 (0 no damage, 100 complete death)
# Text: as §1, §2, §3
# [3] = tested on: sicklepod (Cassia obtusifolia, CAO); experiment: Pre-emerge test, sicklepod; conditions: 250 g ai/ha, 14 days after application, rating scale 0-100 (0 no damage, 100 complete death)
# Text: as §1, §2, §3
# [4] = tested on: ivyleaf morningglory (Ipomoea hederacea, IPH); experiment: Pre-emerge test, ivyleaf morningglory; conditions: 250 g ai/ha, 14 days after application, rating scale 0-100 (0 no damage, 100 complete death)
# Text: as §1, §2, §3
# [5] = tested on: lambsquarters (Chenopodium album, CHA); experiment: Pre-emerge test, lambsquarters; conditions: 250 g ai/ha, 14 days after application, rating scale 0-100 (0 no damage, 100 complete death)
# Text: as §1, §2, §3
# [6] = tested on: common ragweed (Ambrosia artemisiifolia L., AML); experiment: Pre-emerge test, common ragweed; conditions: 250 g ai/ha, 14 days after application, rating scale 0-100 (0 no damage, 100 complete death)
# Text: as §1, §2, §3
# [7] = tested on: cocklebur (Xanthium strumariunt, XAS); experiment: Pre-emerge test, cocklebur; conditions: 250 g ai/ha, 14 days after application, rating scale 0-100 (0 no damage, 100 complete death)
# Text: as §1, §2, §3
# [8] = tested on: green foxtail (Setaria viridis, SEV); experiment: Pre-emerge test, green foxtail; conditions: 250 g ai/ha, 14 days after application, rating scale 0-100 (0 no damage, 100 complete death)
# Text: as §1, §2, §3
# [9] = tested on: barnyardgrass (Echinachloa crus-galli, ECC); experiment: Pre-emerge test, barnyardgrass; conditions: 250 g ai/ha, 14 days after application, rating scale 0-100 (0 no damage, 100 complete death)
# Text: as §1, §2, §3
# [10] = tested on: johnsongrass (Sorghum halepense, SOH); experiment: Pre-emerge test, johnsongrass; conditions: 250 g ai/ha, 14 days after application, rating scale 0-100 (0 no damage, 100 complete death)
# Text: as §1, §2, §3
# [11] = tested on: large crabgrass (Digitaria sanguinalis, DIS); experiment: Pre-emerge test, large crabgrass; conditions: 250 g ai/ha, 14 days after application, rating scale 0-100 (0 no damage, 100 complete death)
# Text: as §1, §2, §3
# [12] = tested on: field corn (Zea mays L., var. Dekalb 535, CORN); experiment: Pre-emerge test, crop damage field corn; conditions: pre-emerge, 250 g ai/ha, 14 days after application, rating scale 0-100 (0 no damage, 100 complete death)
# Text: as §1, §2, §3
# [13] = tested on: soybean (Glycine max L., var. Pella 86, SOY); experiment: Pre-emerge test, crop damage soybean; conditions: pre-emerge, 250 g ai/ha, 14 days after application, rating scale 0-100 (0 no damage, 100 complete death)
# Text: as §1, §2, §3
# [14] = tested on: upland rice (Oryza sp., var.Tebonnet, RICE); experiment: Pre-emerge test, crop damage upland rice; conditions: pre-emerge, 250 g ai/ha, 14 days after application, rating scale 0-100 (0 no damage, 100 complete death)
# Text: as §1, §2, §3
# [15] = tested on: wheat (Triticum aestivum); experiment: Pre-emerge test, crop damage wheat; conditions: pre-emerge, 250 g ai/ha, 14 days after application, rating scale 0-100 (0 no damage, 100 complete death)
# Text: as §1, §2, §3
# [16] = tested on: redroot pigweed (Amaranthus retroflexus, AMR); experiment: Post-emerge test, redroot pigweed; conditions: 250 g ai/ha, 14 days after application, rating scale 0-100 (0 no damage, 100 complete death)
# Text: as §1, §2
# (§4) For post-emerge tests, seeds were planted 8-21 days prior to the test to allow emergence and good foliage development prior to application of the test substances. At the time of the post-emerge application, plants of all species were usually at the 2-3 leaf stage of development. In the postemerge test, a commercial non-ionic surfactant was also included (0.25% v/v) to enhance wetting of the leaf surfaces of target plants.
# as §3
# [17] = tested on: velvetleaf (Abutilon theophrasti, ABT); experiment: Post-emerge test, velvetleaf; conditions: 250 g ai/ha, 14 days after application, rating scale 0-100 (0 no damage, 100 complete death)
# Text: as §1, §2, §4, §3
# [18] = tested on: sicklepod (Cassia obtusifolia, CAO); experiment: Post-emerge test, sicklepod; conditions: 250 g ai/ha, 14 days after application, rating scale 0-100 (0 no damage, 100 complete death)
# Text: as §1, §2, §4, §3
# [19] = tested on: ivyleaf morningglory (Ipomoea hederacea, IPH); experiment: Post-emerge test, ivyleaf morningglory; conditions: 250 g ai/ha, 14 days after application, rating scale 0-100 (0 no damage, 100 complete death)
# Text: as §1, §2, §4, §3
# [20] = tested on: lambsquarters (Chenopodium album, CHA); experiment: Post-emerge test, lambsquarters; conditions: 250 g ai/ha, 14 days after application, rating scale 0-100 (0 no damage, 100 complete death)
# Text: as §1, §2, §4, §3
# [21] = tested on: common ragweed (Ambrosia artemisiifolia L., AML); experiment: Post-emerge test, common ragweed; conditions: 250 g ai/ha, 14 days after application, rating scale 0-100 (0 no damage, 100 complete death)
# Text: as §1, §2, §4, §3
# [22] = tested on: cocklebur (Xanthium strumariunt, XAS); experiment: Post-emerge test, cocklebur; conditions: 250 g ai/ha, 14 days after application, rating scale 0-100 (0 no damage, 100 complete death)
# Text: as §1, §2, §4, §3
# [23] = tested on: green foxtail (Setaria viridis, SEV); experiment: Post-emerge test, green foxtail; conditions: 250 g ai/ha, 14 days after application, rating scale 0-100 (0 no damage, 100 complete death)
# Text: as §1, §2, §4, §3
# [24] = tested on: barnyardgrass (Echinachloa crus-galli, ECC); experiment: Post-emerge test, barnyardgrass; conditions: 250 g ai/ha, 14 days after application, rating scale 0-100 (0 no damage, 100 complete death)
# Text: as §1, §2, §4, §3
# [25] = tested on: johnsongrass (Sorghum halepense, SOH); experiment: Post-emerge test, johnsongrass; conditions: 250 g ai/ha, 14 days after application, rating scale 0-100 (0 no damage, 100 complete death)
# Text: as §1, §2, §4, §3
# [26] = tested on: large crabgrass (Digitaria sanguinalis, DIS); experiment: Post-emerge test, large crabgrass; conditions: 250 g ai/ha, 14 days after application, rating scale 0-100 (0 no damage, 100 complete death)
# Text: as §1, §2, §4, §3
# [27] = tested on: field corn (Zea mays L., var. Dekalb 535, CORN); experiment: Post-emerge test, crop damage field corn; conditions: post-emerge, 250 g ai/ha, 14 days after application, rating scale 0-100 (0 no damage, 100 complete death)
# Text: as §1, §2, §4, §3
# [28] = tested on: soybean (Glycine max L., var. Pella 86, SOY); experiment: Post-emerge test, crop damage soybean; conditions: post-emerge, 250 g ai/ha, 14 days after application, rating scale 0-100 (0 no damage, 100 complete death)
# Text: as §1, §2, §4, §3
# [29] = tested on: upland rice (Oryza sp., var.Tebonnet, RICE); experiment: Post-emerge test, crop damage upland rice; conditions: post-emerge, 250 g ai/ha, 14 days after application, rating scale 0-100 (0 no damage, 100 complete death)
# Text: as §1, §2, §4, §3
# [30] = tested on: wheat (Triticum aestivum); experiment: Post-emerge test, crop damage wheat; conditions: post-emerge, 250 g ai/ha, 14 days after application, rating scale 0-100 (0 no damage, 100 complete death)
# Text: as §1, §2, §4, §3
SMILES,Pre-emerge Herbicidal Activity AMR (phytotoxicity rating) [1],Pre-emerge Herbicidal Activity ABT (phytotoxicity rating) [2],Pre-emerge Herbicidal Activity CAO (phytotoxicity rating) [3],Pre-emerge Herbicidal Activity IPH (phytotoxicity rating) [4],Pre-emerge Herbicidal Activity CHA (phytotoxicity rating) [5],Pre-emerge Herbicidal Activity AML (phytotoxicity rating) [6],Pre-emerge Herbicidal Activity XAS (phytotoxicity rating) [7],Pre-emerge Herbicidal Activity SEV (phytotoxicity rating) [8],Pre-emerge Herbicidal Activity ECC (phytotoxicity rating) [9],Pre-emerge Herbicidal Activity SOH (phytotoxicity rating) [10],Pre-emerge Herbicidal Activity DIS (phytotoxicity rating) [11],Pre-emerge crop damage CORN (phytotoxicity rating) [12],Pre-emerge crop damage SOY (phytotoxicity rating) [13],Pre-emerge crop damage RICE (phytotoxicity rating) [14],Pre-emerge crop damage WHEAT (phytotoxicity rating) [15],Post-emerge Herbicidal Activity AMR (phytotoxicity rating) [16],Post-emerge Herbicidal Activity ABT (phytotoxicity rating) [17],Post-emerge Herbicidal Activity CAO (phytotoxicity rating) [18],Post-emerge Herbicidal Activity IPH (phytotoxicity rating) [19],Post-emerge Herbicidal Activity CHA (phytotoxicity rating) [20],other results
O=C1CN2C(=O)COc3cc(F)c(-n4nnn(CCCF)c4=O)c(c32)N1 [1-76],65,55,45,25,98,55,60,0,35,35,25,5,0,10,0,0,0,0,0,0,Post-emerge Herbicidal Activity AML (phytotoxicity rating) [21]: 0; Post-emerge Herbicidal Activity XAS (phytotoxicity rating) [22]: 0; Post-emerge Herbicidal Activity SEV (phytotoxicity rating) [23]: 0; Post-emerge Herbicidal Activity ECC (phytotoxicity rating) [24]: 0; Post-emerge Herbicidal Activity SOH (phytotoxicity rating) [25]: 0; Post-emerge Herbicidal Activity DIS (phytotoxicity rating) [26]: 0; Post-emerge crop damage CORN (phytotoxicity rating) [27]: 0; Post-emerge crop damage SOY (phytotoxicity rating) [28]: 0; Post-emerge crop damage RICE (phytotoxicity rating) [29]: 0; Post-emerge crop damage WHEAT (phytotoxicity rating) [30]: 0
CCC1C(=O)Nc2c(-c3nn(C)c(OC(F)F)c3Cl)c(F)cc3c2N1C(=O)C(C)(C)O3 (stereo not drawn) [1-61],100,100,65,98,100,80,60,100,99,100,98,0,25,10,15,75,98,30,100,99,Post-emerge Herbicidal Activity AML (phytotoxicity rating) [21]: 60; Post-emerge Herbicidal Activity XAS (phytotoxicity rating) [22]: 90; Post-emerge Herbicidal Activity SEV (phytotoxicity rating) [23]: 85; Post-emerge Herbicidal Activity ECC (phytotoxicity rating) [24]: 35; Post-emerge Herbicidal Activity SOH (phytotoxicity rating) [25]: 20; Post-emerge Herbicidal Activity DIS (phytotoxicity rating) [26]: 0; Post-emerge crop damage CORN (phytotoxicity rating) [27]: 3; Post-emerge crop damage SOY (phytotoxicity rating) [28]: 25; Post-emerge crop damage RICE (phytotoxicity rating) [29]: 30; Post-emerge crop damage WHEAT (phytotoxicity rating) [30]: 30
CC1C(=O)Nc2c(-c3nn(C)c(C(F)(F)F)c3Cl)c(F)cc3c2N1C(=O)C(C)(C)O3 (stereo not drawn) [1-54],100,100,99,75,100,95,90,98,85,99,95,55,55,0,0,80,100,40,60,99,Post-emerge Herbicidal Activity AML (phytotoxicity rating) [21]: 80; Post-emerge Herbicidal Activity XAS (phytotoxicity rating) [22]: 65; Post-emerge Herbicidal Activity SEV (phytotoxicity rating) [23]: 65; Post-emerge Herbicidal Activity ECC (phytotoxicity rating) [24]: 0; Post-emerge Herbicidal Activity SOH (phytotoxicity rating) [25]: 0; Post-emerge Herbicidal Activity DIS (phytotoxicity rating) [26]: 0; Post-emerge crop damage CORN (phytotoxicity rating) [27]: 0; Post-emerge crop damage SOY (phytotoxicity rating) [28]: 45; Post-emerge crop damage RICE (phytotoxicity rating) [29]: 0; Post-emerge crop damage WHEAT (phytotoxicity rating) [30]: 0
